Results from ChEMBL document CHEMBL1201862, “PubChem BioAssay data set” (2004).
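Cells were grown in 96-well plates and exposed to each compound for 48 hours at five concentrations; endpoints were interpolated linearly between bracketing concentrations, or set to the highest concentration if not reached. The concentration for 50% growth inhibition is given as GI50.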 The source made the active and inactive calls. No stated cut-off is given here; in the data, active = GI50 up to about 1.1 µM and inactive = higher.

Key:
Assay in all cases: inhibition of tumour cell growth, NCI panel, 48 h
SNB-19 = test system: SNB-19
MCF7 = test system: MCF7
PC-3 = test system: PC-3
786-0 = test system: 786-0
U-251 = test system: U-251
IGROV-1 = test system: IGROV-1
NCI/ADR-RES = test system: NCI/ADR-RES
UACC-257 = test system: UACC-257
ACHN = test system: ACHN
RXF 393 = test system: RXF 393
NCI-H23 = test system: NCI-H23
OVCAR-4 = test system: OVCAR-4
HOP-62 = test system: HOP-62
OVCAR-8 = test system: OVCAR-8
EKVX = test system: EKVX
CAKI-1 = test system: CAKI-1
DU-145 = test system: DU-145
SF-295 = test system: SF-295
SF-539 = test system: SF-539
OVCAR-5 = test system: OVCAR-5

Measured: GI50

CC1=CC(=O)C(C(O)(C(F)(F)F)C(F)(F)F)C(C)(C)C1 (stereo not drawn)
inactive: SNB-19 > 10 µM | MCF7 > 10 µM | PC-3 > 10 µM | 786-0 > 10 µM | U-251 > 10 µM | IGROV-1 > 10 µM | NCI/ADR-RES > 10 µM | UACC-257 > 10 µM | ACHN > 10 µM | RXF 393 > 10 µM | NCI-H23 > 10 µM | OVCAR-4 > 10 µM | HOP-62 > 10 µM | OVCAR-8 > 10 µM | EKVX > 10 µM | CAKI-1 > 10 µM | DU-145 > 10 µM | SF-295 > 10 µM | SF-539 > 10 µM

CO[C@H]1/C=C/O[C@@]2(C)Oc3c(C)c(O)c4c(O)c(c(/C=N/N5CCN(C)CC5)c(O)c4c3C2=O)NC(=O)/C(C)=C\C=C\[C@H](C)[C@H](O)[C@@H](C)[C@@H](O)[C@@H](C)[C@H](OC(C)=O)[C@@H]1C [RIFAMPIN]
inactive: MCF7 > 100 µM | PC-3 81.5 µM | 786-0 > 100 µM | OVCAR-5 > 100 µM | IGROV-1 73.6 µM | NCI/ADR-RES > 100 µM | UACC-257 80.5 µM | ACHN > 100 µM | RXF 393 > 100 µM | HOP-62 > 100 µM | OVCAR-8 > 100 µM | EKVX > 100 µM | CAKI-1 > 100 µM | DU-145 > 100 µM

CC1(C)C(CC(=O)O)CCCC1CC(=O)O (stereo not drawn)
inactive: SNB-19 > 100 µM | MCF7 > 100 µM | PC-3 > 100 µM | 786-0 > 100 µM | U-251 > 100 µM | OVCAR-5 > 100 µM | IGROV-1 > 100 µM | NCI/ADR-RES > 100 µM | UACC-257 > 100 µM | ACHN > 100 µM | RXF 393 > 100 µM | NCI-H23 > 100 µM | OVCAR-4 > 100 µM | HOP-62 > 100 µM | OVCAR-8 > 100 µM | EKVX > 100 µM | CAKI-1 > 100 µM | DU-145 > 100 µM | SF-295 > 100 µM

Cn1cc(NC(=O)Nc2cc(C(=O)Nc3cc(C(=O)Nc4cc(S(=O)(=O)O)c5cc(S(=O)(=O)O)cc(S(=O)(=O)O)c5c4)n(C)c3)n(C)c2)cc1C(=O)Nc1cc(C(=O)Nc2cc(S(=O)(=O)O)c3cc(S(=O)(=O)O)cc(S(=O)(=O)O)c3c2)n(C)c1
inactive: SNB-19 > 100 µM | MCF7 > 100 µM | PC-3 > 100 µM | 786-0 > 100 µM | U-251 > 100 µM | OVCAR-5 > 100 µM | IGROV-1 5.64 µM | NCI/ADR-RES > 100 µM | UACC-257 > 100 µM | ACHN > 100 µM | RXF 393 > 100 µM | NCI-H23 > 100 µM | OVCAR-4 > 100 µM | HOP-62 > 100 µM | OVCAR-8 > 100 µM | EKVX 31.9 µM | DU-145 > 100 µM | SF-295 > 100 µM | SF-539 > 100 µM

Cc1cc(C)c(S(=O)(=O)N2CCCN(S(=O)(=O)c3c(C)cc(C)cc3C)OCCCO2)c(C)c1
inactive: SNB-19 > 100 µM | MCF7 > 100 µM | PC-3 89.3 µM | 786-0 > 100 µM | U-251 > 100 µM | OVCAR-5 > 100 µM | IGROV-1 > 100 µM | NCI/ADR-RES > 100 µM | UACC-257 45.9 µM | ACHN > 100 µM | RXF 393 > 100 µM | NCI-H23 75.5 µM | OVCAR-4 79.4 µM | HOP-62 > 100 µM | OVCAR-8 > 100 µM | EKVX > 100 µM | CAKI-1 > 100 µM | DU-145 > 100 µM | SF-295 > 100 µM

Nc1ccc(CCN2CCN(CCCc3ccccc3)CC2)cc1
inactive: SNB-19 > 100 µM | MCF7 28.6 µM | PC-3 > 100 µM | 786-0 44.3 µM | U-251 > 100 µM | OVCAR-5 > 100 µM | IGROV-1 98.6 µM | NCI/ADR-RES 86.9 µM | UACC-257 62.4 µM | ACHN > 100 µM | NCI-H23 79.4 µM | OVCAR-4 53.1 µM | HOP-62 > 100 µM | OVCAR-8 47.1 µM | EKVX > 100 µM | CAKI-1 > 100 µM | DU-145 70.3 µM | SF-295 > 100 µM | SF-539 80.5 µM

CC(=O)Nc1ccc(C(=O)N[C@@H]2C(=O)N3[C@@H]2SC(C)(C)[C@@H]3C(=O)O)cn1
inactive: SNB-19 > 100 µM | MCF7 > 100 µM | PC-3 > 100 µM | 786-0 > 100 µM | U-251 > 100 µM | OVCAR-5 > 100 µM | IGROV-1 > 100 µM | NCI/ADR-RES > 100 µM | UACC-257 > 100 µM | ACHN > 100 µM | RXF 393 > 100 µM | NCI-H23 > 100 µM | OVCAR-4 > 100 µM | HOP-62 > 100 µM | OVCAR-8 > 100 µM | EKVX > 100 µM | CAKI-1 > 100 µM | DU-145 > 100 µM | SF-295 > 100 µM
